In ChEMBL document CHEMBL4152362, “Discovery of DS-6930, a potent selective PPARγ modulator. Part II: Lead optimization” (Bioorg Med Chem, 2018):
Converted amounts (≈) assume the structure as drawn. The source made the active and inactive calls. The rule behind the calls is not given here.

Experiments:
Rattus norvegicus [1] = test: Toxicity in Zucker diabetic fatty rat assessed as body weight gain at 3 mg/kg, po administered once daily for 14 days relative to control; assay type: organism-based; details: in vivo, 336 h
Rattus norvegicus [2] = test: Antidiabetic activity in Zucker diabetic fatty rat assessed as reduction in plasma glucose level at 3 mg/kg, po administered once daily for 14 days measured on day 15 relative to control; assay type: functional; design: scale not given: the % may be the effect or the level left
[3] = Tmax in Zucker diabetic fatty rat at 3 mg/kg, po dosed once daily for 14 days and followed by additional administration on day 15; assay type: ADME, organism-based; details: in vivo
[4] = AUC (0 to 24 hrs) in Zucker diabetic fatty rat at 3 mg/kg, po dosed once daily for 14 days and followed by additional administration on day 15; assay type: ADME, organism-based; design: time < 24 hr, dose 3 mg/kg, route oral; details: in vivo
[5] = Cmax in Zucker diabetic fatty rat at 3 mg/kg, po dosed once daily for 14 days and followed by additional administration on day 15; assay type: ADME, organism-based; design: dose 3 mg/kg, route oral; details: in vivo
[6] = biological target: T1, Peroxisome proliferator-activated receptor gamma (Homo sapiens, UniProt P37231); test: Agonist activity at recombinant human GAL4-DBD fused PPARgamma LBD expressed in COS7 cells after 24 hrs by luciferase reporter gene assay; assay type: cell-based
T1 sequence (P37231 whole entry): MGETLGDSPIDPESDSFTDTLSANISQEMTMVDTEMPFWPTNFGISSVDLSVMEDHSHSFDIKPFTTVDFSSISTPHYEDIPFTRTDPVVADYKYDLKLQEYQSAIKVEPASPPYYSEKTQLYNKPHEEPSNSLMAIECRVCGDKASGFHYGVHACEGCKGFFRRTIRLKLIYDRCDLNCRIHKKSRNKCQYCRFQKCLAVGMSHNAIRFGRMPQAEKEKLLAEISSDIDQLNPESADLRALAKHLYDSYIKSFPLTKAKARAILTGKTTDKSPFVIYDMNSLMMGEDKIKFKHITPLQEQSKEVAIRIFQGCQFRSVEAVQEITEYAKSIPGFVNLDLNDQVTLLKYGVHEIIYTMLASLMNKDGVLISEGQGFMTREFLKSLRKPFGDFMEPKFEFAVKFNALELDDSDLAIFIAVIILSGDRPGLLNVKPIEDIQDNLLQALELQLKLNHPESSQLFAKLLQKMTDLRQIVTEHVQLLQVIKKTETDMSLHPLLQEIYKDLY

[7] = biological target: T2, Peroxisome proliferator-activated receptor alpha (Homo sapiens, UniProt Q07869); test: Agonist activity at recombinant human GAL4-DBD fused PPARalpha LBD expressed in COS7 cells after 24 hrs by luciferase reporter gene assay; assay type: cell-based
T2 sequence (Q07869 whole entry): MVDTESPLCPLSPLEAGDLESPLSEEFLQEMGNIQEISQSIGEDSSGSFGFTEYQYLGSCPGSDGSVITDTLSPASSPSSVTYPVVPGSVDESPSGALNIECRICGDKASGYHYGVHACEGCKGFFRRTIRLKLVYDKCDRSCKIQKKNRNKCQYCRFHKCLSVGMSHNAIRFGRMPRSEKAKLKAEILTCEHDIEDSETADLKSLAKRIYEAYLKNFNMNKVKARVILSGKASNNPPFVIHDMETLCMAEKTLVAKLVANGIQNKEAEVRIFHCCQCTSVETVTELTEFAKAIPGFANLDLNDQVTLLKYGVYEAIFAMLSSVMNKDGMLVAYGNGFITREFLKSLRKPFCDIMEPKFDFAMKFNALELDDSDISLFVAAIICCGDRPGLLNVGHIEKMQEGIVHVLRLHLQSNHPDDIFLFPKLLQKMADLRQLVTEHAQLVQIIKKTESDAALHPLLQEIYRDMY

[8] = Apparent permeability of the compound after 4 hrs by PAMPA; assay type: ADME
[9] = Metabolic stability in rat liver microsomes after 0.5 hrs; assay type: ADME, microsome; details: read-out: Stability
[10] = 1-octanol/PBS distribution co-efficient, log D of the compound at […] at pH 7.4 after 30 mins by HPLC-MS/MS method; assay type: physicochemical
[11] = Aqueous thermodynamic solubility of the compound in pH 6.8 solution up to 4 hrs by HPLC-UV analysis; assay type: physicochemical; details: read-out: Therm_solubility
[12] = Metabolic stability in human liver microsomes after 0.5 hrs; assay type: ADME, microsome; details: read-out: Stability
[13] = biological target: T3, Peroxisome proliferator-activated receptor gamma (Homo sapiens) (UniProt P37231); test: Agonist activity at recombinant human GAL4-DBD fused PPARgamma LBD expressed in COS7 cells at 10 uM after 24 hrs by luciferase reporter gene assay relative to rosiglitazone; assay type: cell-based
T3 sequence (whole entry): T1 sequence (P37231 whole entry)

[14] = biological target: T4, Peroxisome proliferator-activated receptor alpha (Homo sapiens) (UniProt Q07869); test: Agonist activity at recombinant human GAL4-DBD fused PPARalpha LBD expressed in COS7 cells at 10 uM after 24 hrs by luciferase reporter gene assay relative to 2-(4-tert-Butylphenoxy)-3-[4-[2-[(4-pyridin-2-ylbenzoyl)amino]ethoxy] phenyl]propionic acid; assay type: cell-based
T4 sequence (whole entry): T2 sequence (Q07869 whole entry)

[15] = biological target: T5, Peroxisome proliferator-activated receptor delta (Homo sapiens) (UniProt Q03181); test: Agonist activity at PPARdelta (unknown origin) at 10 uM
T5 sequence (whole entry): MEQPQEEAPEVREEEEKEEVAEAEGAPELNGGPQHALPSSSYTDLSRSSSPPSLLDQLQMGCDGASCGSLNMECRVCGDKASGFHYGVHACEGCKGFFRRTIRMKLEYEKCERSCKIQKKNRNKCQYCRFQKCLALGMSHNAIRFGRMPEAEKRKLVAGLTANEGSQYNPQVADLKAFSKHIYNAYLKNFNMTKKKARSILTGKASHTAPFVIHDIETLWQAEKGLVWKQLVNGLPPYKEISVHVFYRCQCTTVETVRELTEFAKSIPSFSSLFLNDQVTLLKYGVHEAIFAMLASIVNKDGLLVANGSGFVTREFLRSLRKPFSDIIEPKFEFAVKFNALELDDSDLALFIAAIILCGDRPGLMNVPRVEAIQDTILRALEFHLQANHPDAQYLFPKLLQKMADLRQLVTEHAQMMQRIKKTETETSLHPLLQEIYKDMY

Rattus norvegicus [16] = test: Antidiabetic activity in Zucker diabetic fatty rat assessed as reduction in plasma glucose level administered orally once daily for 21 days measured on day 22; assay type: functional, organism-based
[17] = Oral bioavailability in cynomolgus monkey at 3 mg/kg by LC-MS/MS; assay type: ADME, organism-based, Macaca fascicularis; details: in vivo
[18] = Clearance in cynomolgus monkey at 1 mg/kg, iv by LC-MS/MS; assay type: ADME, organism-based, Macaca fascicularis; details: in vivo
Hepatocyte [19] = test: Cytotoxicity against F344/DuCrlCrlj rat primary hepatocytes assessed as reduction in cell viability at 10 to 100 uM after 24 hrs by LDH release assay; assay type: cell-based
[20] = AUClast in cynomolgus monkey at 3 mg/kg, po by LC-MS/MS; assay type: ADME, organism-based, Macaca fascicularis; design: dose 3 mg/kg, time 0 - last, route oral; details: in vivo
Hepatocyte [21] = test: Cytotoxicity against F344/DuCrlCrlj rat primary hepatocytes assessed as reduction in mitochondrial enzyme activity at 10 to 100 uM after 24 hrs by WST8 assay; assay type: cell-based
[22] = Cmax in cynomolgus monkey at 3 mg/kg, po by LC-MS/MS; assay type: ADME, organism-based, Macaca fascicularis; design: dose 3 mg/kg, route oral; details: in vivo
[23] = Metabolic stability in cynomolgus monkey liver microsomes after 0.5 hrs; assay type: ADME, Macaca fascicularis, microsome; details: read-out: Stability
[24] = Half life in cynomolgus monkey at 3 mg/kg, po by LC-MS/MS; assay type: ADME, organism-based, Macaca fascicularis; details: in vivo
[25] = Volume of distribution at steady state in cynomolgus monkey at 1 mg/kg, iv by LC-MS/MS; assay type: ADME, organism-based, Macaca fascicularis; details: in vivo, read-out: Vdss
[26] = Tmax in cynomolgus monkey at 3 mg/kg, po by LC-MS/MS; assay type: ADME, organism-based, Macaca fascicularis; details: in vivo

Cc1cnc(Oc2ccc3nc(COc4cccc(C(=O)[O-])c4)n(C)c3c2)c(F)c1.[Na+]
Activity (Rattus norvegicus [1]): 10.8% | Activity (Rattus norvegicus [2]): 65.7% | Tmax [3]: 2 h | AUC at 24 h [4]: 3610 ng·h/mL | Cmax [5]: 420 ng/mL

Cc1cc(Cl)cnc1Oc1ccc2nc(COc3cccc(C(=O)O)c3)n(C)c2c1
EC50 [6]: 21 nM | Activity (Rattus norvegicus [1]): 18.5% | EC50 [7]: > 10000 nM | Papp at 4 h [8]: 13.7 ×10⁻⁶ cm/s | Activity (Rattus norvegicus [2]): 54.1% | remaining at 0.5 h [9]: 81% | Tmax [3]: 2.4 h | logD at 0.5 h [10]: 1.8 | AUC at 24 h [4]: 1250 ng·h/mL | solubility thermodynamic at 4 h [11]: 3.9 µg/mL (≈ 9.2 µM) | remaining at 0.5 h [12]: 85% | Emax [13]: 92% | Emax [14]: 7% | Cmax [5]: 120 ng/mL

Cc1cnc(Oc2ccc3nc(COc4cccc(C(=O)O)c4)n(C)c3c2)c(C)c1
Activity [15]: inactive | Activity (Rattus norvegicus [16]): Dose-dependent effect | Emax [14]: 13%

Cn1c(COc2cccc(C(=O)O)c2)nc2ccc(Oc3ccc(Cl)cn3)cc21
EC50 [6]: 71 nM | Activity (Rattus norvegicus [1]): 0.2% | EC50 [7]: > 10000 nM | Papp at 4 h [8]: 16.2 ×10⁻⁶ cm/s | Activity (Rattus norvegicus [2]): 14.8% | remaining at 0.5 h [9]: 100% | Tmax [3]: 4.4 h | logD at 0.5 h [10]: 1.2 | AUC at 24 h [4]: 1010 ng·h/mL | solubility thermodynamic at 4 h [11]: 17 µg/mL (≈ 41.5 µM) | remaining at 0.5 h [12]: 100% | Emax [13]: 66% | Emax [14]: 3% | Cmax [5]: 66 ng/mL

Cc1ccc(Oc2ccc3nc(COc4cccc(C(=O)O)c4)n(C)c3n2)cc1
EC50 [6]: 45 nM | Activity (Rattus norvegicus [1]): 6.8% | EC50 [7]: > 10000 nM | Papp at 4 h [8]: 12.6 ×10⁻⁶ cm/s | Activity (Rattus norvegicus [2]): 37.6% | remaining at 0.5 h [9]: 100% | Tmax [3]: 2 h | Activity [15]: inactive | logD at 0.5 h [10]: 1.7 | AUC at 24 h [4]: 2520 ng·h/mL | solubility thermodynamic at 4 h [11]: 33 µg/mL (≈ 84.7 µM) | Emax [13]: 58% | Emax [14]: 38% | Cmax [5]: 510 ng/mL

Cn1c(COc2cccc(C(=O)O)c2)nc2ccc(Oc3ncc(Cl)cc3F)cc21
bioavailability [17]: 31% | Activity (Rattus norvegicus [1]): 13.8% | clearance [18]: 1.66 mL/min/kg | EC50 [7]: > 10000 nM | Activity (Hepatocyte [19]): Non-Toxic | Papp at 4 h [8]: 11.8 ×10⁻⁶ cm/s | Activity (Rattus norvegicus [2]): 70.6% | AUC(0-t) [20]: 9940 ng·h/mL | remaining at 0.5 h [9]: 87% | Activity (Hepatocyte [21]): Non-Toxic | Tmax [3]: 2 h | logD at 0.5 h [10]: 1.3 | Cmax [22]: 1190 ng/mL | remaining at 0.5 h [23]: 91% | AUC at 24 h [4]: 3910 ng·h/mL | solubility thermodynamic at 4 h [11]: 10 µg/mL (≈ 23.4 µM) | half-life [24]: 8.84 h | remaining at 0.5 h [12]: 90% | Vd [25]: 0.5 L/kg | Emax [13]: 79% | Emax [14]: 5% | Tmax [26]: 3.25 h | Cmax [5]: 450 ng/mL
